For 20 molecules, inhibition results are on record in patent US12637471B2, “Heterocyclic compounds, compositions, methods of preparation and uses thereof” (Organon R&D Finland Ltd, priority 2021, dated 2026).

A word on the inhibition: it is the change of the read-out against control, counted positive when it falls.

SMILES strings stand for the structures.

What all share (format): biochemical
Test [1] deals with T1, Recombinant human AKR1C3 (17β-HSD5) protein (Homo sapiens, UniProt P42330).
T1 construct: made in house; host or cells: E. coli
T1 sequence (P42330 1-323): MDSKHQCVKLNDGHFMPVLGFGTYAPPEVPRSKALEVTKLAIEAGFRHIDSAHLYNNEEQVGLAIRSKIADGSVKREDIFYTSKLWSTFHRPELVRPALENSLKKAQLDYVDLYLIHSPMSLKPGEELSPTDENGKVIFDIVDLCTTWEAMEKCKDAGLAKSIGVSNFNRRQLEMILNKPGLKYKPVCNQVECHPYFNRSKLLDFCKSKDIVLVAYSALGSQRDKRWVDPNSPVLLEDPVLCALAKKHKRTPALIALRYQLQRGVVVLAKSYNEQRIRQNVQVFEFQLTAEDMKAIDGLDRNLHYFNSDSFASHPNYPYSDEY
The experiment in a line: Inhibition of AKR1C3 (17β-hydroxysteroid dehydrogenase type 5) enzyme, fluorescence assay. Conditions: inhibitor at 500 nM. In outline: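 Percent inhibition at 500 nM compound, derived from substrate conversion; product alcohol measured by fluorescence (ex 420, em 510 nm) against a 1 μM–10 nM standard curve. Reaction: 27 nM recombinant AKR1C3, 1 μM ketone substrate, 1 mM NADPH, phosphate/EDTA buffer pH 7.4, 1% DMSO, RT for 60–120 min.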

The target of test [2] is T2, Recombinant human aldo-keto reductase family 1 member C2 (AKR1C2) protein (Homo sapiens, UniProt P52895).
T2 construct: made in house; host or cells: Sf-9 insect cells (baculovirus)
T2 sequence (P52895 1-323): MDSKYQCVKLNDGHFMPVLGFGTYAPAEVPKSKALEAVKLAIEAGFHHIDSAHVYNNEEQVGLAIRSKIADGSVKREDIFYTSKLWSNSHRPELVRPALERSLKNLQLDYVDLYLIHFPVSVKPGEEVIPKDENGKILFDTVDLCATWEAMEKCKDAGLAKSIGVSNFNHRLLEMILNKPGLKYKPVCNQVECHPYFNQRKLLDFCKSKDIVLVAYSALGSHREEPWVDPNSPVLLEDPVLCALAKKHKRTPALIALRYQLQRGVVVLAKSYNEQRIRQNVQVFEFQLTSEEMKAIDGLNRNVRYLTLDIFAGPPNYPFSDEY
Kind of test: Inhibition of the aldo-keto reductase family 1 member C2, 3H-dihydrotestosterone conversion. Conditions: inhibitor at 10 μM. In outline: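 Single-point screen at 10 μM inhibitor, 1% DMSO: [3H]DHT (6.25 nM) reduction to 3α-diol by baculovirus-made AKR1C2 (13.6 nM), pH 7.4 phosphate buffer, 1 mM NADPH, 37 °C for 45 min. Radio-UPLC quantified product versus substrate to give percent inhibition.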

The target in test [3] is T3, 17β-Hydroxysteroid Dehydrogenase Type 2 Enzyme (17β-HSD2) (Homo sapiens, UniProt P37059).
T3 construct: made in house; host or cells: Sf-9 insect cells (baculovirus)
T3 sequence (P37059 1-387): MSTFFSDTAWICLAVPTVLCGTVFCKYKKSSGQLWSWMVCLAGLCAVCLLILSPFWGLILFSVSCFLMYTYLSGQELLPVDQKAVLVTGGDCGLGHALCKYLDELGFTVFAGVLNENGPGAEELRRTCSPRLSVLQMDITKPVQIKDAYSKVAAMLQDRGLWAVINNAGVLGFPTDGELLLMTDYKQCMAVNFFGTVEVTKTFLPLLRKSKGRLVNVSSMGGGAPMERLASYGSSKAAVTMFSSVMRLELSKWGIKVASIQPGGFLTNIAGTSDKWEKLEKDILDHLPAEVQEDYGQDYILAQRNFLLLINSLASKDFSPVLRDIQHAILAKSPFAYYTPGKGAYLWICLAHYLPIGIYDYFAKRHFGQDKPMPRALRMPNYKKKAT
Kind of test: Inhibition of the 17β-hydroxysteroid dehydrogenase type 2 enzyme, 3H-testosterone conversion. Conditions: inhibitor at 10 μM. In outline: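 Single-point screen at 10 μM inhibitor, 1% DMSO: Sf-9-expressed human enzyme (105 nM), NAD 1 mM, ³H-labelled testosterone 56.25 nM, pH 8.5 phosphate/EDTA buffer, 30 min, room temperature. After TCA quench, substrate and product radioactivity quantified by UPLC with scintillation detection; inhibition percent from conversion.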

For `CCN(CC)C(=O)N1CCC(=C(C#N)c2ccc(Cl)s2)CC1` [Compound 173, 4-((5-chlorothiophen-2-yl)(cyano)methylene)-N,N-diethylpiperidine-1-carboxamide], the inhibition at 0.5 µM in test [1] amounted to 99%. The inhibition at 10 µM in test [2] was 29%; in test [3], 50%.

For the molecule `N#CC(=C1CCN(C(=O)N2CCc3nocc3C2)CC1)c1cccc2[nH]ncc12` [Compound 138, 2-(1H-indazol-4-yl)-2-(1-(4,5,6,7-tetrahydroisoxazolo[4,3-c]pyridine-5-carbonyl)piperidin-4-ylidene)acetonitrile], in test [1], the inhibition at 0.5 µM came to 98%. Further, the figures for the inhibition at 10 µM in test [2] and in test [3] were 31% and 13%, respectively.

For `N#CC(=C1CCN(C(=O)N2C3CCC2COC3)CC1)c1ccc(F)c(F)c1` [Compound 31, 2-(1-(3-oxa-8-azabicyclo[3.2.1]octane-8-carbonyl)piperidin-4-ylidene)-2-(3,4-difluorophenyl)acetonitrile], in test [1], the inhibition at 0.5 µM was 95%. The inhibition at 10 µM in test [2] was 11%; in test [3], 9%.

For the molecule `N#CC(=C1CCN(C(=O)N2CCc3nocc3C2)CC1)c1ccc(OC(F)(F)F)cc1` [Compound 159, 2-(1-(4,5,6,7-tetrahydroisoxazolo[4,3-c]pyridine-5-carbonyl)piperidin-4-ylidene)-2-(4-(trifluoromethoxy)phenyl)acetonitrile], in test [1], the inhibition at 0.5 µM was determined as 100%. Besides, the inhibition at 10 µM in test [2] amounted to 14%; in test [3], 1%.

Take `N#CC(=C1CCN(C(=O)N2CCOCC2)CC1)c1cccc2[nH]ncc12` [Compound 45, 2-(1H-indazol-4-yl)-2-(1-(morpholine-4-carbonyl)piperidin-4-ylidene)acetonitrile]: the inhibition at 0.5 µM in test [1] turned out to be 103%. Moreover, the values for the inhibition at 10 µM in test [2] and in test [3] were 5% and 2%, respectively.

Regarding `N#CC(=C1CCN(C(=O)N2CCn3cncc3C2)CC1)c1cccc2cn[nH]c12` [Compound 72, 2-(1H-indazol-7-yl)-2-(1-(5,6,7,8-tetrahydroimidazo[1,5-a]pyrazine-7-carbonyl)piperidin-4-ylidene)acetonitrile], the inhibition at 0.5 µM in test [1] is 98%. For the same molecule, the inhibition at 10 µM in test [2] was determined as 9%; in test [3], 26%.

For the molecule `COCC1CCN(C(=O)N2CCC(=C(C#N)c3ccc(F)cc3F)CC2)CC1` [Compound 73, 2-(2,4-difluorophenyl)-2-(1-(4-(methoxymethyl)piperidine-1-carbonyl)piperidin-4-ylidene)acetonitrile], the inhibition at 0.5 µM in test [1] is 92%. In addition, the inhibition at 10 µM was 19% in test [2] and 21% in test [3].

Turning to `COC[C@@H]1CCCN1C(=O)N1CCC(=C(C#N)c2ccc(Cl)cc2)CC1` [Compound 82, (S)-2-(4-chlorophenyl)-2-(1-(2-(methoxymethyl)pyrrolidine-1-carbonyl)piperidin-4-ylidene)acetonitrile], in test [1], the inhibition at 0.5 µM is 100%. In addition, the results for the inhibition at 10 µM in test [2] and in test [3] were 3% and 28%, respectively.

For the molecule `N#CC(=C1CCN(C(=O)N2CCc3[nH]ncc3C2)CC1)c1ccc(F)cc1F` [Compound 122, 2-(2,4-difluorophenyl)-2-(1-(4,5,6,7-tetrahydro-1H-pyrazolo[4,3-c]pyridine-5-carbonyl)piperidin-4-ylidene)acetonitrile], the inhibition at 0.5 µM in test [1] worked out at 99%. Moreover, the inhibition at 10 µM in test [2] was 42%; in test [3], 24%.

As to `N#CC(=C1CCN(C(=O)N2CCn3cncc3C2)CC1)c1ccc(F)c(F)c1` [Compound 44, 2-(3,4-difluorophenyl)-2-(1-(5,6,7,8-tetrahydroimidazo[1,5-a]pyrazine-7-carbonyl)piperidin-4-ylidene)acetonitrile], in test [1], the inhibition at 0.5 µM came to 103%. Besides, the inhibition at 10 µM in test [2] is 18%; in test [3], 12%.

In the case of `CCN(CC)C(=O)N1CCC(=C(C#N)c2ccc(F)cn2)CC1` [Compound 172, 4-(cyano(5-fluoropyridin-2-yl)methylene)-N,N-diethylpiperidine-1-carboxamide], in test [1], the inhibition at 0.5 µM is 95%. The values for the inhibition at 10 µM in test [2] and in test [3] were -2% and 13%, respectively.

`N#CC(=C1CCN(C(=O)N2CCn3cncc3C2)CC1)c1cc(F)cc(F)c1` [Compound 52, 2-(3,5-difluorophenyl)-2-(1-(5,6,7,8-tetrahydroimidazo[1,5-a]pyrazine-7-carbonyl)piperidin-4-ylidene)acetonitrile]: the inhibition at 0.5 µM in test [1] is 97%. The inhibition at 10 µM in test [2] is 19%; in test [3] it was 13%.

For the molecule `N#CC(=C1CCN(C(=O)N2CCc3ccccc32)CC1)c1ccc(F)cc1` [Compound 102, 2-(4-fluorophenyl)-2-(1-(indoline-1-carbonyl)piperidin-4-ylidene)acetonitrile], the inhibition at 0.5 µM in test [1] was found to be 99%. Besides, the inhibition at 10 µM in test [2] is 17%; in test [3], 12%.

In the case of `N#CC(=C1CCN(C(=O)N2C3CCC2COC3)CC1)c1ccc(F)cc1` [Compound 15, 2-(1-(3-oxa-8-azabicyclo[3.2.1]octane-8-carbonyl)piperidin-4-ylidene)-2-(4-fluorophenyl)acetonitrile], the inhibition at 0.5 µM in test [1] turned out to be 97%. For the same molecule, the inhibition at 10 µM in test [2] was 6%; in test [3] it was 11%.

Regarding `COC1CN(C(=O)N2CCC(=C(C#N)c3ccc(F)cc3)CC2)C1` [Compound 22, 2-(4-fluorophenyl)-2-(1-(3-methoxyazetidine-1-carbonyl)piperidin-4-ylidene)acetonitrile], the inhibition at 0.5 µM in test [1] was found to be 88%. For the same molecule, the inhibition at 10 µM was 9% in test [2] and 7% in test [3].

Turning to `N#CC(=C1CCN(C(=O)N2CCc3nocc3C2)CC1)c1ccc(Cl)s1` [Compound 160, 2-(5-chlorothiophen-2-yl)-2-(1-(4,5,6,7-tetrahydroisoxazolo[4,3-c]pyridine-5-carbonyl)piperidin-4-ylidene)acetonitrile], in test [1], the inhibition at 0.5 µM is 99%. The inhibition at 10 µM in test [2] is 34%; in test [3], 18%.

As to `N#CC(=C1CCN(C(=O)N2CCn3ncnc3C2)CC1)c1ccc(Cl)cc1` [Compound 164, 2-(4-chlorophenyl)-2-(1-(5,6,7,8-tetrahydro-[1,2,4]triazolo[1,5-a]pyrazine-7-carbonyl)piperidin-4-ylidene)acetonitrile], in test [1], the inhibition at 0.5 µM is 99%. The inhibition at 10 µM came out at 12% in test [2] and 10% in test [3].

Turning to `Cn1ncc2cccc(C(C#N)=C3CCN(C(=O)N4CCn5cncc5C4)CC3)c21` [Compound 59, 2-(1-methyl-1H-indazol-7-yl)-2-(1-(5,6,7,8-tetrahydroimidazo[1,5-a]pyrazine-7-carbonyl)piperidin-4-ylidene)acetonitrile], the inhibition at 0.5 µM in test [1] was 98%. Also, the inhibition at 10 µM amounted to 5% in test [2] and 22% in test [3].

For `N#CC(=C1CCN(C(=O)N2CCc3nocc3C2)CC1)c1ccc(F)cc1F` [Compound 38, 2-(2,4-difluorophenyl)-2-(1-(4,5,6,7-tetrahydroisoxazolo[4,3-c]pyridine-5-carbonyl)piperidin-4-ylidene)acetonitrile], in test [1], the inhibition at 0.5 µM worked out at 97%. The inhibition at 10 µM amounted to 30% in test [2] and 27% in test [3].

On to `N#CC(=C1CCN(C(=O)N2CCCCC2)CC1)c1ccc(Cl)cc1` [Compound 104, 2-(4-chlorophenyl)-2-(1-(piperidine-1-carbonyl)piperidin-4-ylidene)acetonitrile], for which the inhibition at 0.5 µM in test [1] came to 96%. For the same molecule, the inhibition at 10 µM is 5% in test [2] and 0% in test [3].
